{
  "source": "paper PMC11997890",
  "about": "“In Vivo and In Vitro Pharmacokinetic Studies of a Dual Topoisomerase I/II Inhibitor” (ACS Pharmacology & Translational Science, 2025)",
  "key": {"[1]": {"biological_target": "human FMO3 (Homo sapiens, UniProt P31513)", "sequence (P31513 whole entry, the tested form may be a part)": "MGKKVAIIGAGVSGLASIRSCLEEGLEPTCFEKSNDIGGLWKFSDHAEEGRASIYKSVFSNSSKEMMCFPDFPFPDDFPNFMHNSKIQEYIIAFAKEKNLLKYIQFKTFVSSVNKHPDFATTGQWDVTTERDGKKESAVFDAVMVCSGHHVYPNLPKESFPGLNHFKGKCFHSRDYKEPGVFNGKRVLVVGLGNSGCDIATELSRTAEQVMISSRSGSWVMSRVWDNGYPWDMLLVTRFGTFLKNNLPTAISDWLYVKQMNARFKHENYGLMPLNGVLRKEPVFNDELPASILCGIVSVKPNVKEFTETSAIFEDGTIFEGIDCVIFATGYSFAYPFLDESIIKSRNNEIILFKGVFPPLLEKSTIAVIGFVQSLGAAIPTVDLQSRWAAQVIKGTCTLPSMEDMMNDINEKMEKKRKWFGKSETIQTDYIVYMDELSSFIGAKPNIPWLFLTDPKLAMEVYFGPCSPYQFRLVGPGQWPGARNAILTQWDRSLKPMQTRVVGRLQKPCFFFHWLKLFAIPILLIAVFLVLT", "assay": "Conversion of P8-D6 by recombinant FMO3", "type": "in vitro ADME", "settings": "seven recombinant CYP isoenzymes and human FMO3", "protocol": "(§1) P8-D6 N-oxide was the most common metabolite for all incubations with subcellular fractions from the homogenized tissue. According to the detected MS-MS fragments (supplied as Supporting Information Chapter 2), it resulted from N-oxygenation of the nitrogen at the side chain since the unmodified fragment of P8-DO (m/z = 414.1) was detected. Furthermore, the detected fragment at m/z = 440.1 is most likely a carbocation at the remaining ethyl chain after splitting off the dimethylamine N-oxide further strengthening the theory of selectively forming this specific N-oxide. In addition, no relevant chemical shifts in the aromatic range of the ^1H NMR compared to P8-D6 and mono were observed (supplied as Supporting Information Chapter 2). Thus, no chemical modifications can have occurred on the aromatic rings, and all changes must therefore affect the side chain. […] To determine which enzymes were responsible for the conversion, seven recombinant CYP 450 isoenzymes recommended by the FDA’s “Guidance for Industry” and human FMO3 were used.\nFor all phase I metabolism studies (except cell cultures), a 0.3 mL reaction mixture consisting of 1 mM substrate (P8-D6, P8-D6 mono, P8-D6 N-oxide), 1 mM NADPH as a cofactor, 0.67 mg/mL protein from homogenized tissue or subcellular fractions, respectively (except recombinant enzymes, where 0.5 mg/mL was used), and PBS buffer (pH 7.4) was used. […]"}, "[2]": {"biological_target": "T1, CYP3A4 (Homo sapiens, UniProt P08684)", "T1 construct": "host or cells: human liver microsomes (one value) / recombinant CYP enzyme (other value)", "T1 sequence (P08684 whole entry)": "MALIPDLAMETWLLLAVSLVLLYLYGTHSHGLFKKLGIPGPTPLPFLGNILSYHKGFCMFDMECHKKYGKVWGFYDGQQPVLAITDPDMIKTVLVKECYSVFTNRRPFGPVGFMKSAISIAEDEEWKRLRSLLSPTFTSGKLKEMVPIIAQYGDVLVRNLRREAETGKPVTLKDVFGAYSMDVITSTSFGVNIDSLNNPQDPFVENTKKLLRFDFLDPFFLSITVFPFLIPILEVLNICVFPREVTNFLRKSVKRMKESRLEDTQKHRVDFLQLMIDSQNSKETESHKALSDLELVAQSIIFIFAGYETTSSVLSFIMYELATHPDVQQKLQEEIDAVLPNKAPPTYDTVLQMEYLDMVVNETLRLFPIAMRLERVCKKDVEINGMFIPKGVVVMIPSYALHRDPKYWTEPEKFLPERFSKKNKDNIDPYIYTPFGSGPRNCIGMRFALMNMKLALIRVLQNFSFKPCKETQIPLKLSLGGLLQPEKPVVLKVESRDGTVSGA", "assay": "Conversion of P8-D6 by recombinant CYP3A4", "type": "in vitro ADME", "protocol": "as §1\nAmong the recombinant enzymes, P8-D6 is mostly metabolized to P8-D6 mono by CYP3A4 (0.34%, significant compared to any other enzyme, p < 0.0001) and 2D6 (0.17%, significant compared to 2C8, 1A2, 2C19, and 2C9, p < 0.005) (Figure E). […]"}, "[3]": {"biological_target": "T2, CYP1A2 (Homo sapiens, UniProt P05177)", "T2 construct": "host or cells: human liver microsomes (one value) / recombinant CYP enzyme (other value)", "T2 sequence (P05177 whole entry)": "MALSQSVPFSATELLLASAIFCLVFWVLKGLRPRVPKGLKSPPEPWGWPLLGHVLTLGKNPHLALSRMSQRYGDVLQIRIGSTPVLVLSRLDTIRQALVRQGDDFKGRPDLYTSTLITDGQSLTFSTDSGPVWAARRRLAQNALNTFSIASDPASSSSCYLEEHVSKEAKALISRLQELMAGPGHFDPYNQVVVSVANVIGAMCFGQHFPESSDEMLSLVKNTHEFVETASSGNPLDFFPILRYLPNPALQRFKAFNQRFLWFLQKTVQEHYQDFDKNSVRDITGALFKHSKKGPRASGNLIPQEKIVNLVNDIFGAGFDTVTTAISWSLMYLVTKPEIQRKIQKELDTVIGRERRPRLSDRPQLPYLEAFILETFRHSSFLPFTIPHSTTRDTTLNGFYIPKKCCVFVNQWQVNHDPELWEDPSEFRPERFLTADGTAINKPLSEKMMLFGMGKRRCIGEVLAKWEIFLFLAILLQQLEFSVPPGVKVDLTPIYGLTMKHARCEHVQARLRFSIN", "assay": "In vitro CYP inhibition, marker substrate phenacetin", "type": "in vitro ADME", "protocol": "(§2) To assess metabolizing enzyme-mediated drug interactions, P8-D6 was incubated with human liver (HLM) or recombinant CYP enzymes and the respective marker substrate according to the FDA (with the exception of using amitriptyline instead of S-mephenytoin). −\n(§3) However, as some conversions were catalyzed by several enzymes, the conversion rates in HLM increased (e.g., bupropion and diclofenac).\n(§4) To examine a possible in vitro CYP inhibition, the following CYP enzymes and marker substrates were investigated according to the FDA: , phenacetin (CYP1A2), bupropion (CYP2B6), amodiaquine (CYP2C8), diclofenac (CYP2C9), amitriptyline (CYP2C19), dextromethorphan (CYP2D6), testosterone (CYP3A4), and nifedipine (CYP3A4). Incubation was performed in a 0.2 mL reaction mix consisting of PBS buffer (pH 7.4), 1 mM marker substrate, 1 mM NADPH, and either 0.5 mg/mL recombinant CYP enzyme or human liver microsomes. P8-D6 was added for a final concentration of 0.5 μM, 1 μM, 5 μM, 10 μM, 25 μM, 50 μM, 100 μM, 500 μM, 1000 μM, and (in some cases) 5000 μM. Sample preparation was performed according to in vitro biotransformation."}, "[4]": {"biological_target": "T3, CYP2D6 (Homo sapiens, UniProt P10635)", "T3 construct": "host or cells: human liver microsomes (one value) / recombinant CYP enzyme (other value)", "T3 sequence (P10635 whole entry)": "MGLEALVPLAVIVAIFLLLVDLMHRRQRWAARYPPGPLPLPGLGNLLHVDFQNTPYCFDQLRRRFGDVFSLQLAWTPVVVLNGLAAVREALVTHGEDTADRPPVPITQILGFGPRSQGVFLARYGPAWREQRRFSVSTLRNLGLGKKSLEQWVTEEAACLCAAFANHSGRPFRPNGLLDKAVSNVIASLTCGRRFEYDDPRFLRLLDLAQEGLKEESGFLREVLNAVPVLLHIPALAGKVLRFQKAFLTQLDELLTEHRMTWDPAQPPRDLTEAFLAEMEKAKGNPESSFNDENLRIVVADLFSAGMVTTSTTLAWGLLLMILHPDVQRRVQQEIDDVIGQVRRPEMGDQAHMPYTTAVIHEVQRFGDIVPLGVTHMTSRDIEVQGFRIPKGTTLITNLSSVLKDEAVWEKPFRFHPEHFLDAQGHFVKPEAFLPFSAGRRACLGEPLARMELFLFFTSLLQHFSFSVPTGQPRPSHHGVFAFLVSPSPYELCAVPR", "assay": "In vitro CYP inhibition, marker substrate dextromethorphan", "type": "in vitro ADME", "protocol": "as §2, §3, §4"}, "[5]": {"biological_target": "T4, CYP2C19 (Homo sapiens, UniProt P33261)", "T4 construct": "host or cells: human liver microsomes (one value) / recombinant CYP enzyme (other value)", "T4 sequence (P33261 whole entry)": "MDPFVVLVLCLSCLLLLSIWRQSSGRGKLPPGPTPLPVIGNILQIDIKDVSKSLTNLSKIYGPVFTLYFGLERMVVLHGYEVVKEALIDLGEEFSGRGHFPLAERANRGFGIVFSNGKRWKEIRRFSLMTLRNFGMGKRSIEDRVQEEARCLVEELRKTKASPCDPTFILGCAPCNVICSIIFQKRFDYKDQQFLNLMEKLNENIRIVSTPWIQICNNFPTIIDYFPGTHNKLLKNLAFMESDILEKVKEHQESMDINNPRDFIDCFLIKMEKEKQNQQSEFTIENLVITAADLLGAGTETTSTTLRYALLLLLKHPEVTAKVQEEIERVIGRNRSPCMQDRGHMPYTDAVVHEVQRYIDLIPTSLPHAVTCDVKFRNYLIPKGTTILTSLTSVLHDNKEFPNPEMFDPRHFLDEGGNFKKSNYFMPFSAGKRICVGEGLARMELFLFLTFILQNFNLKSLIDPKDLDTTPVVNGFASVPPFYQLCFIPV", "assay": "In vitro CYP inhibition, marker substrate amitriptyline", "type": "in vitro ADME", "protocol": "as §2, §3, §4"}, "[6]": {"biological_target": "T5, human (Homo sapiens, UniProt P02763)", "T5 construct": "purchased Merck KGaA, Darmstadt G9885", "T5 sequence (P02763 19-201)": "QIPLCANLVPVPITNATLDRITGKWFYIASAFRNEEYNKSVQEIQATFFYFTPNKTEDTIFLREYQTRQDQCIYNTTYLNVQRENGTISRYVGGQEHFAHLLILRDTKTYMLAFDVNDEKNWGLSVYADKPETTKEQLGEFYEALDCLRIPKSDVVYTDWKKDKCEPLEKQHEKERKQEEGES", "assay": "Binding to isolated plasma protein by ultrafiltration", "protocol": "(§5) To examine the effect of the P8-D6 plasma protein binding on the in vivo bioavailability, human and rat plasma was spiked in vitro and incubated with P8-D6. By using ultrafiltration to separate free P8-D6 from the protein-bound fraction, a plasma protein binding of 99% (Figure A) was estimated. However, neither human α-1-microglobulin (3.06%) nor human serum albumin (0.91%) is responsible for binding. According to initial findings, γ-globulins (94.59%), human transferrin (90.43%), LDL (87.99%), human α2-HS glycoprotein (85.29%), and human fibrinogen (78.89%) lead to binding of P8-D6.\n(§6) To examine the extent of plasma protein binding, 150 μL of blank samples of human plasma (1 mM) and rat plasma (1 mM), human albumin (1 mM, #A1653, Merck KGaA, Darmstadt); human α1-acid glycoprotein (1 mM; #G9885, Merck KGaA, Darmstadt); human α2-HS-glycoprotein (0.1 mM; #G0516, Merck KGaA, Darmstadt); human transferrin (0.2 mM; #T8158, Merck KGaA, Darmstadt); human fibrinogen (0.2 mM; #F3879, Merck KGaA, Darmstadt); LDL (0.2 mM; […]); and human γ-globulin (1 mM; #G4386, Merck KGaA, Darmstadt) were spiked with P8-D6 in the same final concentration as the protein and incubated in a shaking water bath at 37 °C for 120 min. Afterward, the unbound fraction of P8-D6 was separated by ultrafiltration (Vivaspin 500 10 000 MWCO filter). The sample preparation was performed according to plasma samples. Blank plasma samples served as the control samples."}, "[7]": {"biological_target": "T6, human α2-HS glycoprotein (Homo sapiens, UniProt P02765)", "T6 construct": "purchased Merck KGaA, Darmstadt G0516", "T6 sequence (P02765 19-367)": "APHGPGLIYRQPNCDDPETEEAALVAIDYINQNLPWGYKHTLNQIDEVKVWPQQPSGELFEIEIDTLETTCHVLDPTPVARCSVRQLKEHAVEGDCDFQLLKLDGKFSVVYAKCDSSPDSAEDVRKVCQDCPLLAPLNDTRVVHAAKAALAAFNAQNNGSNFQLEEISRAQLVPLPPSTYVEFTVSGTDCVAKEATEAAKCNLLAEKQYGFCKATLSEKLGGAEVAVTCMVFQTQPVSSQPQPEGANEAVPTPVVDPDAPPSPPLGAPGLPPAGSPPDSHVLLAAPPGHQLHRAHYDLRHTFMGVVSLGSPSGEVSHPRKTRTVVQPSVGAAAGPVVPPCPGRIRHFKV", "assay": "Binding to isolated plasma protein by ultrafiltration", "protocol": "as §5, §6"}, "[8]": {"biological_target": "T7, human serum albumin (Homo sapiens, UniProt P02768)", "T7 construct": "purchased Merck KGaA, Darmstadt A1653", "T7 sequence (P02768 25-609)": "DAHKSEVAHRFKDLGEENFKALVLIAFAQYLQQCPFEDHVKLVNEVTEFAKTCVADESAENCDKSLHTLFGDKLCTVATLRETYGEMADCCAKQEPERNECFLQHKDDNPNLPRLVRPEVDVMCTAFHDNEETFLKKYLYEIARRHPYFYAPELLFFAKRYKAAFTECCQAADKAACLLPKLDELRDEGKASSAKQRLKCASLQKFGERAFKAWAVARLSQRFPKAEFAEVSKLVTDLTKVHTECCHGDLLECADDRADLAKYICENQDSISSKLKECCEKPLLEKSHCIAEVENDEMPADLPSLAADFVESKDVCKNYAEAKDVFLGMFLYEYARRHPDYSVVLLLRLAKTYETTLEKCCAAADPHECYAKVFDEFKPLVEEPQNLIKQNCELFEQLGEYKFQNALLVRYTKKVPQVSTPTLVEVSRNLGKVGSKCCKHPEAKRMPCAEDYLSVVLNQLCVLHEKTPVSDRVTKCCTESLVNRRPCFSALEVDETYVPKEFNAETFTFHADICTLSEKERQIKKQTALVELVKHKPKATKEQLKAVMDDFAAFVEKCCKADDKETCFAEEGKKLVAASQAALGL", "assay": "Binding to isolated plasma protein by ultrafiltration", "protocol": "as §5, §6"}, "[9]": {"biological_target": "T8, human fibrinogen (Homo sapiens, UniProt P02671+P02675+P02679)", "T8 construct": "purchased Merck KGaA, Darmstadt F3879", "assay": "Binding to isolated plasma protein by ultrafiltration", "protocol": "as §5, §6"}, "[10]": {"biological_target": "T9, CYP2C8 (Homo sapiens, UniProt P10632)", "T9 construct": "host or cells: human liver microsomes (one value) / recombinant CYP enzyme (other value)", "T9 sequence (P10632 whole entry)": "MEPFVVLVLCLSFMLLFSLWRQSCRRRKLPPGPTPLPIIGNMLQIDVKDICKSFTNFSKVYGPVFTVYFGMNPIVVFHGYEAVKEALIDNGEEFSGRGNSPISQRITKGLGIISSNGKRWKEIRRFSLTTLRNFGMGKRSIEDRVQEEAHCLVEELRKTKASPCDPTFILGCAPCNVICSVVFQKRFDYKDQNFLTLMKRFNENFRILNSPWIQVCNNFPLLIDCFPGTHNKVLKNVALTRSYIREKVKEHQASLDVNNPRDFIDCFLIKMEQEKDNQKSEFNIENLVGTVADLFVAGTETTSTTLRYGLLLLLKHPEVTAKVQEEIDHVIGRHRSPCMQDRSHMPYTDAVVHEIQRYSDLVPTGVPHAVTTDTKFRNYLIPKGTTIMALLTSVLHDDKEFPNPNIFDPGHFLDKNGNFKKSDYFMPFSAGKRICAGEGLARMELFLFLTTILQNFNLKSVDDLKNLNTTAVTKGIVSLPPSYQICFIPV", "assay": "In vitro CYP inhibition, marker substrate amodiaquine", "type": "in vitro ADME", "protocol": "as §2, §3, §4"}, "[11]": {"biological_target": "T10, CYP2C9 (Homo sapiens, UniProt P11712)", "T10 construct": "host or cells: human liver microsomes (one value) / recombinant CYP enzyme (other value)", "T10 sequence (P11712 whole entry)": "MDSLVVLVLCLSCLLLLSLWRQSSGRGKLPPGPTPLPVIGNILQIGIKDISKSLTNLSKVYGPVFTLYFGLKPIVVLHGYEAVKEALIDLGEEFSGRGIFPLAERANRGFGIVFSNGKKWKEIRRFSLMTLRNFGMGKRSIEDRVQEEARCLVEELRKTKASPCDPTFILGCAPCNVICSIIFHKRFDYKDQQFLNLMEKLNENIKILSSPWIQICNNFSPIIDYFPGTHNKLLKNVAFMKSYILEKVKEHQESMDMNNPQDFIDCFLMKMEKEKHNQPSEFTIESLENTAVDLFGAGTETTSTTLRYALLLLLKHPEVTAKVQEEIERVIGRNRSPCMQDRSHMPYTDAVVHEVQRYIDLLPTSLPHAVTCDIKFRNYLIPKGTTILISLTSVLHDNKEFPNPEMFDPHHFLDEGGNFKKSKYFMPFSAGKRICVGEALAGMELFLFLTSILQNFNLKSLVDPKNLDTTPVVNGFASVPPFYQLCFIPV", "assay": "In vitro CYP inhibition, marker substrate diclofenac", "type": "in vitro ADME", "protocol": "as §2, §3, §4"}},
  "data": [
    {"smiles": "COc1cc(-c2cc3ccncc3c3nc(OCC[N+](C)(C)[O-])c4cnccc4c23)cc(OC)c1OC", "note": "[P8-D6 N-oxide]", "values": [
      {"measurement": "formation of metabolite from P8-D6 by recombinant enzymes", "setting": "[1]", "result": "only with FMO3"}
    ]},
    {"smiles": "CNCCOc1nc2c3cnccc3cc(-c3cc(OC)c(OC)c(OC)c3)c2c2ccncc12", "note": "[P8-D6 mono]", "values": [
      {"measurement": "formation of metabolite from P8-D6", "setting": "[2]", "result": 0.34, "unit": "%"}
    ]},
    {"smiles": "COc1cc(-c2cc3ccncc3c3nc(OCCN(C)C)c4cnccc4c23)cc(OC)c1OC", "note": "[P8-D6, 6-(N,N-dimethyl-2-aminoethoxy)-11-(3,4,5-trimethoxyphenyl)-pyrido[3,4-c][1,9]-phenanthroline]", "values": [
      {"measurement": "IC50", "setting": "[3]; HLM", "result": 912, "unit": "µM"},
      {"measurement": "IC50", "setting": "[3]; recombinant CYP isoenzyme", "result": 503, "unit": "µM"},
      {"measurement": "IC50", "setting": "[4]; HLM", "result": 285, "unit": "µM"},
      {"measurement": "IC50", "setting": "[4]; recombinant CYP isoenzyme", "result": 166, "unit": "µM"},
      {"measurement": "IC50", "setting": "[5]; HLM", "result": 149, "unit": "µM"},
      {"measurement": "IC50", "setting": "[5]; recombinant CYP isoenzyme", "result": 793, "unit": "µM"},
      {"measurement": "binding of P8-D6", "setting": "[6]", "result": 3.06, "unit": "%"},
      {"measurement": "binding of P8-D6", "setting": "[7]", "result": 85.29, "unit": "%"},
      {"measurement": "binding of P8-D6", "setting": "[8]", "result": 0.91, "unit": "%"},
      {"measurement": "binding of P8-D6", "setting": "[9]", "result": 78.89, "unit": "%"},
      {"measurement": "IC50", "setting": "[10]; HLM", "result": 246, "unit": "µM"},
      {"measurement": "IC50", "setting": "[10]; recombinant CYP isoenzyme", "result": 282, "unit": "µM"},
      {"measurement": "IC50", "setting": "[11]; HLM", "result": 162, "unit": "µM"},
      {"measurement": "IC50", "setting": "[11]; recombinant CYP isoenzyme", "result": 71.4, "unit": "µM"}
    ]}
  ]
}
